Data as given in patent US12365696B2, “Small-molecule focal adhesion kinase (FAK) inhibitors” (DANA-FARBER CANCER INSTITUTE, INC., priority 2019, dated 2025).

What follows are compounds tested against PTK2 (FAK) (Homo sapiens (Human), UniProt Q05397) (assay: Z′-LYTE kinase assay (SelectScreen Biochemical Kinase Profiling), enzymatic IC50). Details: FAK IC50.
Protocol: Enzymatic IC50 data was obtained through ThermoFisher Scientific SelectScreen™ Biochemical Kinase Profiling Service, using a Z′-LYTE™ kinase-specific assay, as described below.
The test compounds were screened in 1% dimethyl sulfoxide (DMSO) (final) in the well. For 10 point titrations, 3-fold serial dilutions were conducted from the starting concentration.
All peptide/kinase mixtures were diluted to a 2× working concentration in the appropriate kinase buffer (see section kinase specific assay conditions for a complete description).
All ATP solutions were diluted to a 4× working concentration in kinase buffer (50 mM 4-(2-hydroxyethyl)-1-piperazineethanesulfonic acid (HEPES) pH 7.5, 0.01% BRIJ-35, 10 mM MgCl2, 1 mM ethylene glycol-bis(β-aminoethyl ether)-N,N,N′,N′-tetraacetic acid (EGTA)). ATP Km apparent was previously determined using a Z′-LYTE assay.
The development reagent was diluted in development buffer (see section kinase-specific assay conditions—direct and cascade for a complete description).
Using a bar-coded Corning, low volume NBS, black 384-well plate (Corning Cat. #4514), 100 nL of 100× test compound in 100% DMSO was added. […] The plate was then shaken for 30 seconds and held at room temperature for a 60 minute kinase reaction incubation period. At which point 5 μL of development reagent solution was added and the plate was shaken for 30 seconds. The plate was held again at room temperature for a 60 minute development reaction incubation period and then read on a fluorescence plate reader and analyzed.
The 2×PTK2 (FAK)/Tyr 07 mixture was prepared in 50 mM HEPES pH 7.5, 0.01% BRIJ-35, 10 mM MgCl2, 1 mM EGTA. […] After the 1 hour kinase reaction incubation period, 5 μL of a 1:16 dilution of development reagent B was added.
SelectScreen Kinase Profiling Service uses XLfit from ID Business Solutions (IDBS). The dose response curve was curve fit to model number 205 (sigmoidal dose-response model).

PTK2 (FAK), sequence (Q05397 whole entry): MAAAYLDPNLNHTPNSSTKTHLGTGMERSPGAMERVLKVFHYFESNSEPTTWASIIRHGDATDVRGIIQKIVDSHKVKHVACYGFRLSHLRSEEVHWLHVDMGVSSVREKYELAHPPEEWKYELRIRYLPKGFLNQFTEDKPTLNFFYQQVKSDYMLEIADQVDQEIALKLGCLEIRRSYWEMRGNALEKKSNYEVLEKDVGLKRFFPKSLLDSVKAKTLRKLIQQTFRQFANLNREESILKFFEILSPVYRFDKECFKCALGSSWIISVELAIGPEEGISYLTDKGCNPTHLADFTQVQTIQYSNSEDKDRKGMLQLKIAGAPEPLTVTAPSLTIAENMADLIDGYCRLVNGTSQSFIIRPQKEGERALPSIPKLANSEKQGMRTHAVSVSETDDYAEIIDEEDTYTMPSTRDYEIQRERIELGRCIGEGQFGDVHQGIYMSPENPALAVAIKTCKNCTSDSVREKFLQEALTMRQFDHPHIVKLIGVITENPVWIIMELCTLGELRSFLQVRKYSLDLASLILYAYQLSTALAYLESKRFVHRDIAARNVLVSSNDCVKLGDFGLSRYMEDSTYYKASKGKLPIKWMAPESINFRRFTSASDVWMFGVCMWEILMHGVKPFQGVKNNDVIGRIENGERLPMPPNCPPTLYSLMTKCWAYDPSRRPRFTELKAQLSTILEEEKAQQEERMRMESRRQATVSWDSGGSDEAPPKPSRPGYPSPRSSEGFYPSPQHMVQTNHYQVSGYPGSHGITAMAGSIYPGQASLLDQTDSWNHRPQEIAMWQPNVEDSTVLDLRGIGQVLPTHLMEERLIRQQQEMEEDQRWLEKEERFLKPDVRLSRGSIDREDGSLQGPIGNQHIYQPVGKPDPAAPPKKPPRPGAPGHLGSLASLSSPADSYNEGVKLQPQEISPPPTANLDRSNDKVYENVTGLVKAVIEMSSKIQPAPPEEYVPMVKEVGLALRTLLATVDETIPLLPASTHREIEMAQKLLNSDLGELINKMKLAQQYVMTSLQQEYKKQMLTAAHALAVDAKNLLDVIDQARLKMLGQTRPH

| SMILES | loss in potency relative to 3 [fold] | lower potency relative to 5 [fold] |
| --- | --- | --- |
| COc1cc(N2CCC(N3CCN(C)CC3)CC2)ccc1Nc1ncc2c(n1)N(C)c1scnc1C(=O)N2 [Compound 6, 6-((2-methoxy-4-(4-(4-methylpiperazin-1-yl)piperidin-1-yl)phenyl)amino)-4-methyl-4,9-dihydro-10H-pyrimido[5,4-b]thiazolo[5,4-e][1,4]diazepin-10-one] | 8 | – |
| COc1cc(N2CCC(N3CCN(C)CC3)CC2)ccc1Nc1ncc2c(n1)N(C)c1sc(C(F)(F)F)nc1C(=O)N2C [Compound 177, 6-((2-methoxy-4-(4-(4-methylpiperazin-1-yl)piperidin-1-yl)phenyl)amino)-4,9-dimethyl-2-(trifluoromethyl)-4,9-dihydro-10H-pyrimido[5,4-b]thiazolo[5,4-e][1,4]diazepin-10-one] | – | ~10 |

Same assay, conditions: enzymatic, Z′-LYTE; read-out: FAK IC50

| SMILES | IC50 [nM] |
| --- | --- |
| Cc1nc2c(s1)N(C)c1nc(Nc3ccc(N4CCN(C)CC4)cc3)ncc1NC2=O [Compound 1, 2,4-dimethyl-6-((4-(4-methylpiperazin-1-yl)phenyl)amino)-4,9-dihydro-10H-pyrimido[5,4-b]thiazolo[5,4-e][1,4]diazepin-10-one] | 228 |
| Cc1nc2c(s1)N(C)c1nc(Nc3ccc(N4CCC(O)CC4)cc3)ncc1NC2=O [Compound 2, 6-((4-(4-hydroxypiperidin-1-yl)phenyl)amino)-2,4-dimethyl-4,9-dihydro-10H-pyrimido[5,4-b]thiazolo[5,4-e][1,4]diazepin-10-one] | 580 |
| COc1cc(Nc2ncc3c(n2)N(C)c2sc(C)nc2C(=O)N3)ccc1N1CCN(C)CC1 [Compound 4, 6-((3-methoxy-4-(4-methylpiperazin-1-yl)phenyl)amino)-2,4-dimethyl-4,9-dihydro-10H-pyrimido[5,4-b]thiazolo[5,4-e][1,4]diazepin-10-one] | 90.4 |
| COc1cc(N2CCC(N3CCN(C)CC3)CC2)ccc1Nc1ncc2c(n1)N(C)c1scnc1C(=O)N2 [Compound 6, 6-((2-methoxy-4-(4-(4-methylpiperazin-1-yl)piperidin-1-yl)phenyl)amino)-4-methyl-4,9-dihydro-10H-pyrimido[5,4-b]thiazolo[5,4-e][1,4]diazepin-10-one] | 510 |
| COc1cc(N2CCN(C)CC2)ccc1Nc1ncc2c(n1)N(C)c1sc(C)nc1C(=O)N2 [Compound 7, 6-((2-methoxy-4-(4-methylpiperazin-1-yl)phenyl)amino)-2,4-dimethyl-4,9-dihydro-10H-pyrimido[5,4-b]thiazolo[5,4-e][1,4]diazepin-10-one] | 48.7 |
| CCc1nc2c(s1)N(C)c1nc(Nc3ccc(N4CCC(N5CCN(C)CC5)CC4)cc3OC)ncc1NC2=O [Compound 8, 2-ethyl-6-((2-methoxy-4-(4-(4-methylpiperazin-1-yl)piperidin-1-yl)phenyl)amino)-4-methyl-4,9-dihydro-10H-pyrimido[5,4-b]thiazolo[5,4-e][1,4]diazepin-10-one] | 32.1 |
| CCN1c2nc(Nc3ccc(N4CCC(N5CCN(C)CC5)CC4)cc3OC)ncc2NC(=O)c2nc(C)sc21 [Compound 9, 4-ethyl-6-((2-methoxy-4-(4-(4-methylpiperazin-1-yl)piperidin-1-yl)phenyl)amino)-2-methyl-4,9-dihydro-10H-pyrimido[5,4-b]thiazolo[5,4-e][1,4]diazepin-10-one] | 45.1 |
| CNC(=O)c1ccc(Nc2ncc3c(n2)N(C)c2sc(C)nc2C(=O)N3)cc1 [Compound 10, 4-((2,4-dimethyl-10-oxo-9,10-dihydro-4H-pyrimido[5,4-b]thiazolo[5,4-e][1,4]diazepin-6-yl)amino)-N-methylbenzamide] | 129 |
| COc1cc(N2CCN(S(C)(=O)=O)CC2)ccc1Nc1ncc2c(n1)N(C)c1sc(C)nc1C(=O)N2 [Compound 11, 6-((2-methoxy-4-(4-(methylsulfonyl)piperazin-1-yl)phenyl)amino)-2,4-dimethyl-4,9-dihydro-10H-pyrimido[5,4-b]thiazolo[5,4-e][1,4]diazepin-10-one] | 17.6 |
| C=CC(=O)N1CCN(c2ccc(Nc3ncc4c(n3)N(C)c3sc(C)nc3C(=O)N4C)c(OC)c2)CC1 [Compound 13, 6-((4-(4-acryloylpiperazin-1-yl)-2-methoxyphenyl)amino)-2,4,9-trimethyl-4,9-dihydro-10H-pyrimido[5,4-b]thiazolo[5,4-e][1,4]diazepin-10-one] | 53.6 |
| Cc1nc2c(s1)N(C)c1nc(Nc3ccc(N4CCN(C)CC4)cc3OCCO)ncc1N(C)C2=O [Compound 17, 6-((2-(2-hydroxyethoxy)-4-(4-methylpiperazin-1-yl)phenyl)amino)-2,4,9-trimethyl-4,9-dihydro-10H-pyrimido[5,4-b]thiazolo[5,4-e][1,4]diazepin-10-one] | 465 |
| Cc1nc2c(s1)N(C)c1nc(Nc3ccc(N4CCN(C)CC4)cn3)ncc1N(C)C2=O [Compound 24, 2,4,9-trimethyl-6-((5-(4-methylpiperazin-1-yl)pyridin-2-yl)amino)-4,9-dihydro-10H-pyrimido[5,4-b]thiazolo[5,4-e][1,4]diazepin-10-one] | 196 |
| Cc1nc2c(s1)N(C)c1nc(Nc3cnn(C)c3)ncc1N(C)C2=O [Compound 26, 2,4,9-trimethyl-6-((1-methyl-1H-pyrazol-4-yl)amino)-4,9-dihydro-10H-pyrimido[5,4-b]thiazolo[5,4-e][1,4]diazepin-10-one] | 666 |
| COc1cc(N2CCC(N3CCN(C)CC3)CC2)ccc1Nc1ncc2c(n1)N(C)c1sc(C(F)(F)F)nc1C(=O)N2C [Compound 177, 6-((2-methoxy-4-(4-(4-methylpiperazin-1-yl)piperidin-1-yl)phenyl)amino)-4,9-dimethyl-2-(trifluoromethyl)-4,9-dihydro-10H-pyrimido[5,4-b]thiazolo[5,4-e][1,4]diazepin-10-one] | 134 |
| CN1CCN(c2ccc(Nc3ncc4c(n3)N(C)c3sc(-c5ccccc5)nc3C(=O)N4C)cc2)CC1 [Compound 184, 4,9-dimethyl-6-((4-(4-methylpiperazin-1-yl)phenyl)amino)-2-phenyl-4,9-dihydro-10H-pyrimido[5,4-b]thiazolo[5,4-e][1,4]diazepin-10-one] | > 10000 |
| COc1cc(N2CCC(N3CCN(C)CC3)CC2)ccc1Nc1ncc2c(n1)N(C)c1sc(-c3ccccc3)nc1C(=O)N2C [Compound 186, 6-((2-methoxy-4-(4-(4-methylpiperazin-1-yl)piperidin-1-yl)phenyl)amino)-4,9-dimethyl-2-phenyl-4,9-dihydro-10H-pyrimido[5,4-b]thiazolo[5,4-e][1,4]diazepin-10-one] | > 10000 |
| CCc1nc2c(s1)N(C)c1nc(Nc3ccc(N4CCC(N5CCN(C)CC5)CC4)cc3OC)ncc1N(C)C2=O [Compound 193, 2-ethyl-6-((2-methoxy-4-(4-(4-methylpiperazin-1-yl)piperidin-1-yl)phenyl)amino)-4,9-dimethyl-4,9-dihydro-10H-pyrimido[5,4-b]thiazolo[5,4-e][1,4]diazepin-10-one] | 31.7 |
| COc1cc(Nc2ncc3c(n2)N(C)c2sc(C)nc2C(=O)N3)ccc1N1CCC(N2CCN(C)CC2)CC1 [Compound 194, 6-((3-methoxy-4-(4-(4-methylpiperazin-1-yl)piperidin-1-yl)phenyl)amino)-2,4-dimethyl-4,9-dihydro-10H-pyrimido[5,4-b]thiazolo[5,4-e][1,4]diazepin-10-one] | 55.7 |
| COc1cc(N2CCN(C3CCN(C)CC3)CC2)ccc1Nc1ncc2c(n1)N(C)c1sc(C)nc1C(=O)N2C [Compound 195, 6-((2-methoxy-4-(4-(1-methylpiperidin-4-yl)piperazin-1-yl)phenyl)amino)-2,4,9-trimethyl-4,9-dihydro-10H-pyrimido[5,4-b]thiazolo[5,4-e][1,4]diazepin-10-one] | 62.9 |
| COc1cc(N2CCN(C)CC2=O)ccc1Nc1ncc2c(n1)N(C)c1sc(C)nc1C(=O)N2C [Compound 196, 6-((2-methoxy-4-(4-methyl-2-oxopiperazin-1-yl)phenyl)amino)-2,4,9-trimethyl-4,9-dihydro-10H-pyrimido[5,4-b]thiazolo[5,4-e][1,4]diazepin-10-one] | 82.4 |
| COc1cc(N2CCN(C(C)=O)CC2)ccc1Nc1ncc2c(n1)N(C)c1sc(C)nc1C(=O)N2C [Compound 199, 6-((4-(4-acetylpiperazin-1-yl)-2-methoxyphenyl)amino)-2,4,9-trimethyl-4,9-dihydro-10H-pyrimido[5,4-b]thiazolo[5,4-e][1,4]diazepin-10-one] | 45.7 |
| COc1cc(N2CCN(CCN(C)C)CC2)ccc1Nc1ncc2c(n1)N(C)c1sc(C)nc1C(=O)N2C [Compound 200, 6-((4-(4-(2-(dimethylamino)ethyl)piperazin-1-yl)-2-methoxyphenyl)amino)-2,4,9-trimethyl-4,9-dihydro-10H-pyrimido[5,4-b]thiazolo[5,4-e][1,4]diazepin-10-one] | 67.2 |
| Cc1nc2c(s1)N(C)c1nc(Nc3ccc(N4CCN(C)CC4)cc3OCC(F)(F)F)ncc1N(C)C2=O [Compound 201, 2,4,9-trimethyl-6-((4-(4-methylpiperazin-1-yl)-2-(2,2,2-trifluoroethoxy)phenyl)amino)-4,9-dihydro-10H-pyrimido[5,4-b]thiazolo[5,4-e][1,4]diazepin-10-one] | 83.5 |
| CCCOc1cc(N2CCN(C)CC2)ccc1Nc1ncc2c(n1)N(C)c1sc(C)nc1C(=O)N2C [Compound 202, 2,4,9-trimethyl-6-((4-(4-methylpiperazin-1-yl)-2-propoxyphenyl)amino)-4,9-dihydro-10H-pyrimido[5,4-b]thiazolo[5,4-e][1,4]diazepin-10-one] | 155 |

Same assay, conditions: phenyl substituent at thiazole 2-position

| SMILES | FAK inhibitory activity (in words) |
| --- | --- |
| CN1CCN(c2ccc(Nc3ncc4c(n3)N(C)c3sc(-c5ccccc5)nc3C(=O)N4C)cc2)CC1 [Compound 184, 4,9-dimethyl-6-((4-(4-methylpiperazin-1-yl)phenyl)amino)-2-phenyl-4,9-dihydro-10H-pyrimido[5,4-b]thiazolo[5,4-e][1,4]diazepin-10-one] | abrogated activity |
